Reference: US6809070B2, “Toilet bar having a latent acidifier” (Unilever Home & Personal Care USA, division of Conopco, Inc., priority 2001, dated 2004)
Where two headings read alike, the source gives them in different places.

Legend:
[1] = Aqueous slurry pH (10% slurry, 25 C); assay type: physicochemical
Experimental: Various inventive and comparative compounds were formulated with three separate toilet bar bases, 1, 2, and 3 at the 10% by wt. level and their aqueous slurry pH (see method below) was compared to a control shown in table 1. Inventive latent acidifiers are designated “I” and comparative compounds are designated “C”. The bar bases were formulated by blending all ingredients except the latent acidifier for about 30-40 minutes at temperatures of 180-230 F. After that, the latent acidifier is added and mixed for another few minutes until a uniform mixture is obtained. […] The latent acidifier could also be added in the chip mixer after the batch has been cooled and solidified in a spray dryer or a chill roll. This is followed by extrusion and stamping into a bar.
Method for Measuring Aqueous Slurry pH
Nine grams of the base formula and one gram of the latent acidifier (or a comparative compound) were blended together with 90 g of water to create a 10% slurry. The pH of the slurry was then measured at 25 C.

[2] = pH of 1% by wt. aqueous solutions; assay type: physicochemical
[3] = compound at 10% by wt. in toilet bar Base 1, 10% slurry, 25 C
[4] = compound at 10% by wt. in toilet bar Base 2, 10% slurry, 25 C
[5] = compound at 10% by wt. in toilet bar Base 3, 10% slurry, 25 C
[6] = 1% by wt. aqueous solution of the compound

Row | Compound | Aqueous slurry pH, Base 1 [1] | Aqueous slurry pH, Base 2 [1] | Aqueous slurry pH, Base 3 [1] | pH of 1% Solution ([2]; pH 1) | Aqueous slurry pH, Base 1 [1, 3] | Aqueous slurry pH, Base 2 [1, 4] | Aqueous slurry pH, Base 3 [1, 5] | pH of 1% Solution [2, 6] | Aqueous slurry pH of bars [1] | Latent acidification effect [1]
1 | CC(=O)O.N [Ammonium Acetate] | 6.8 | 8.9 | 9.5 | 6.9 |  |  |  |  |  | 
2 | Cl.N [Ammonium Chloride] |  |  |  |  | 6.5 | 8.7 | 9.1 | 4.9 |  | 
3 | N.N.N.O=P(O)(O)O [Ammonium Phosphate] | 6.1 | 7.6 | 8.7 | 4.2 |  |  |  |  |  | 
4 | N.N.O=S(=O)(O)O [Ammonium Sulfate] |  |  |  |  | 6.7 | 8.9 | 9.4 | 5.0 |  | 
5 | CC(=O)[O-].CC(=O)[O-].[Ca+2] [Calcium Acetate] | 5.2 | 8.1 | 10.1 | 8.2 |  |  |  |  |  | 
6 | O=C([O-])[O-].[Ca+2] [Calcium Carbonate, reference compound] | 7.0 | 9.0 | 10.6 | 9.2 |  |  |  |  |  | 
7 | [Ca+2].[Cl-].[Cl-] [Calcium Chloride] | 4.2 | 6.9 | 9.8 | 9.3 |  |  |  |  |  | 
8 | [Ca+2].[OH-].[OH-] [Calcium Hydroxide, reference compound] | 11.9 | 12.1 | 11.9 | 11.8 |  |  |  |  |  | 
9 | O=[N+]([O-])[O-].O=[N+]([O-])[O-].[Ca+2] [Calcium Nitrate] | 5.2 | 8.6 | 10.1 | 5.3 |  |  |  |  |  | 
10 | O=S(=O)([O-])[O-].[Ca+2] [Calcium Sulfate] | 4.9 | 8.8 | 10.2 |  |  |  |  |  | significant drop in pH | latent acidification effect
11 | O=S(=O)([O-])[O-].O=S(=O)([O-])[O-].O=S(=O)([O-])[O-].[Fe+3].[Fe+3] [Ferric Sulfate] | 1.5 | 7.5 | 9.1 | 1.7 |  |  |  |  |  | 
12 | [Cl-].[Cl-].[Mg+2] [Magnesium Chloride] | 5.9 | 8.4 | 10.0 | 5.2 |  |  |  |  |  | 
13 | O=S(=O)([O-])[O-].[Mg+2] [Magnesium Sulfate] | 6.2 | 8.6 | 10.2 | 6.5 |  |  |  |  |  | 
14 | O=C([O-])O.[Na+] [Sodium Bicarbonate, reference compound] |  |  |  |  | 7.5 | 8.8 | 9.4 | 8.3 |  | 
15 | [Cl-].[Na+] [Sodium Chloride, reference compound] |  |  |  |  | 6.7 | 8.7 | 10.1 | 8.1 |  | 
16 | O=P(O)(O)O [Sodium Phosphate, reference compound] | 7.2 | 8.9 | 10.2 | 9.1 |  |  |  |  |  | 
17 | O=S(=O)([O-])[O-].[Na+].[Na+] [Sodium Sulfate, reference compound] | 6.9 | 8.9 | 10.3 | 9.1 |  |  |  |  |  | 
18 | Calcium Phosphate | 5.4 | 7.2 | 8.6 | 3.7 |  |  |  |  |  | 
